Results: ChEMBL document CHEMBL5055665, “Discovery of the Triazolo[1,5-a]Pyrimidine-Based Derivative WS-898 as a Highly Efficacious and Orally Bioavailable ABCB1 Inhibitor Capable of Overcoming Multidrug Resistance” (J Med Chem, 2021)
The source made the active and inactive calls. The calls are words filed in the database; no cut-off is given here.

Columns and labels:
KB-C2 [1] = experiment: Reversal of resistance to paclitaxel-induced cytotoxicity in human KB-C2 cells assessed as reduction in paclitaxel IC50 at 2 uM preincubated for 4 hrs followed by paclitaxel addition and measured after 72 hrs by MTT assay (reference value: 1886.37 +/- 243.05 nM); format: functional, cell-based
SW-620 [2] = experiment: Antitumor activity against human SW-620/AD300 cells xenografted in BALB/c nude mouse assessed as tumor growth inhibition at 30 mg/kg/day, ig administered for 21 days in presence of paclitaxel; format: functional; design: scale not given: the % may be the effect or the level left; settings: time 21 day
[3] = MRTlast in Sprague-Dawley rat at 10 mg/kg, iv measured up to 24 hrs by LC-MS/MS analysis; format: ADME, organism-based; settings: in vivo
[4] = AUClast in Sprague-Dawley rat at 10 mg/kg, iv measured up to 24 hrs by LC-MS/MS analysis; format: ADME, organism-based; design: dose 10 mg/kg, time < 24 hrs, route iv; settings: in vivo
[5] = Volume of distribution at steady state in Sprague-Dawley rat at 10 mg/kg, iv measured up to 24 hrs by LC-MS/MS analysis; format: ADME, organism-based; settings: in vivo, read-out: Vdss
SW-620 [6] = experiment: Effect on subcellular localization of ABCB1 in human SW-620/AD300 cells at 2 uM measured after 72 hrs by Hoechst 33258 staining based immunofluorescence assay; format: functional, cell-based
KB-C2 [7] = experiment: Reversal of resistance to paclitaxel-induced cytotoxicity in human KB-C2 cells assessed as reduction in paclitaxel IC50 at 1 uM preincubated for 4 hrs followed by paclitaxel addition and measured after 72 hrs by MTT assay (reference value: 1886.37 +/- 243.05 nM); format: functional, cell-based
HEK293 [8] = experiment: Reversal of resistance to paclitaxel-induced cytotoxicity in human HEK293/ABCB1 cells assessed as reversal fold at 1 uM preincubated for 4 hrs followed by paclitaxel addition and measured after 72 hrs by MTT assay relative to paclitaxel; format: functional; settings: time 76 hrs
HEK293 [9] = experiment: Reversal of resistance to paclitaxel-induced cytotoxicity in human HEK293/pcDNA3.1 cells assessed as reduction in paclitaxel IC50 at 1 uM preincubated for 4 hrs followed by paclitaxel addition and measured after 72 hrs by MTT assay (reference value: 1.93 +/- 0.06 nM); format: functional, cell-based
HEK293 [10] = experiment: Reversal of resistance to paclitaxel-induced cytotoxicity in human HEK293/ABCB1 cells assessed as reversal fold at 2 uM preincubated for 4 hrs followed by paclitaxel addition and measured after 72 hrs by MTT assay relative to paclitaxel; format: functional; settings: time 76 hrs
SW-620 [11] = experiment: Reversal of resistance to paclitaxel-induced cytotoxicity in human SW-620/AD300 cells assessed as reversal fold at 2 uM preincubated for 4 hrs followed by paclitaxel addition and measured after 72 hrs by MTT assay relative to paclitaxel; format: functional; settings: time 76 hrs
Mus musculus [12] = experiment: Toxicity in BALB/c mouse xenografted with human SW-620/AD300 cells assessed as change in body weight at 30 mg/kg/day, ig administered 21 days; format: organism-based; settings: in vivo, po, 504 h, time 21 day
KB 3-1 [13] = experiment: Reversal of resistance to paclitaxel-induced cytotoxicity in human KB 3-1 cells assessed as reversal fold at 2 uM preincubated for 4 hrs followed by paclitaxel addition and measured after 72 hrs by MTT assay relative to paclitaxel; format: functional; settings: time 76 hrs
SW-620 [14] = experiment: Antitumor activity against human SW-620/AD300 cells xenografted in BALB/c nude mouse assessed as increase in cells with nuclear pyknosis at 30 mg/kg/day, ig administered for 21 days in presence of paclitaxel by TUNEL staining based fluorescence microscopy; format: functional, organism-based; settings: time 21.0 day
HEK293 [15] = experiment: Reversal of resistance to paclitaxel-induced cytotoxicity in human HEK293/pcDNA3.1 cells assessed as reversal fold at 2 uM preincubated for 4 hrs followed by paclitaxel addition and measured after 72 hrs by MTT assay; format: functional; settings: time 76 hrs
KB 3-1 [16] = experiment: Reversal of resistance to paclitaxel-induced cytotoxicity in human KB 3-1 cells assessed as reduction in paclitaxel IC50 at 1 uM preincubated for 4 hrs followed by paclitaxel addition and measured after 72 hrs by MTT assay (reference value: 4.54 +/- 1.59 nM); format: functional, cell-based
[17] = Clearance in Sprague-Dawley rat at 10 mg/kg, iv measured up to 24 hrs by LC-MS/MS analysis; format: ADME, organism-based; settings: in vivo
SW-620 [18] = experiment: Effect on ABCB1 expression in human SW-620/AD300 cells at 2 uM measured upto 96 hrs by Western blot analysis; format: functional, cell-based
SW-620 [19] = experiment: Antitumor activity against human SW-620/AD300 cells xenografted in BALB/c nude mouse assessed as reduction in tumor weight at 30 mg/kg/day, ig administered for 21 days in presence of paclitaxel; format: functional, organism-based; settings: time 21.0 day
KB-C2 [20] = experiment: Reversal of resistance to paclitaxel-induced cytotoxicity in human KB-C2 cells assessed as reversal fold at 1 uM preincubated for 4 hrs followed by paclitaxel addition and measured after 72 hrs by MTT assay relative to paclitaxel; format: functional; settings: time 76 hrs
SW-620 [21] = experiment: Reversal of resistance to paclitaxel-induced cytotoxicity in human SW-620 cells assessed as reversal fold at 2 uM preincubated for 4 hrs followed by paclitaxel addition and measured after 72 hrs by MTT assay relative to paclitaxel; format: functional; settings: time 76 hrs
Mus musculus [22] = experiment: Toxicity in BALB/c mouse xenografted with human SW-620/AD300 cells assessed as mortality at 30 mg/kg/day, ig administered 21 days; format: organism-based; settings: in vivo, po, 504 h, time 21 day
KB-C2 [23] = experiment: Reversal of resistance to paclitaxel-induced cytotoxicity in human KB-C2 cells assessed as reversal fold at 2 uM preincubated for 4 hrs followed by paclitaxel addition and measured after 72 hrs by MTT assay relative to paclitaxel; format: functional; settings: time 76 hrs
SW-620 [24] = experiment: Reversal of resistance to paclitaxel-induced cytotoxicity in human SW-620 cells assessed as reduction in paclitaxel IC50 at 1 uM preincubated for 4 hrs followed by paclitaxel addition and measured after 72 hrs by MTT assay (reference value: 7.69 +/- 2.78 nM); format: functional, cell-based
SW-620 [25] = experiment: Antitumor activity against human SW-620/AD300 cells xenografted in BALB/c nude mouse assessed as increase in cells with vacuoles at 30 mg/kg/day, ig administered for 21 days in presence of paclitaxel by TUNEL staining based fluorescence microscopy; format: functional, organism-based; settings: time 21.0 day
SW-620 [26] = experiment: Reversal of resistance to paclitaxel-induced cytotoxicity in human SW-620 cells assessed as reversal fold at 1 uM preincubated for 4 hrs followed by paclitaxel addition and measured after 72 hrs by MTT assay relative to paclitaxel; format: functional; settings: time 76 hrs
SW-620 [27] = experiment: Reversal of resistance to paclitaxel-induced cytotoxicity in human SW-620/AD300 cells assessed as reduction in paclitaxel IC50 at 1 uM preincubated for 4 hrs followed by paclitaxel addition and measured after 72 hrs by MTT assay (reference value: 4.23 +/- 0.50 uM); format: functional, cell-based
KB 3-1 [28] = experiment: Reversal of resistance to paclitaxel-induced cytotoxicity in human KB 3-1 cells assessed as reversal fold at 1 uM preincubated for 4 hrs followed by paclitaxel addition and measured after 72 hrs by MTT assay relative to paclitaxel; format: functional; settings: time 76 hrs
[29] = target: ATP-dependent translocase ABCB1 (Homo sapiens, UniProt P08183); experiment: Binding affinity to ABCB1 in human SW-620/AD300 cells assessed as thermal stabilization of protein at 2 uM incubated for 76 hrs by CETSA-based Western blot analysis; format: cell-based; settings: sw-620, 76 h
Sequence of ATP-dependent translocase ABCB1 (P08183 whole entry): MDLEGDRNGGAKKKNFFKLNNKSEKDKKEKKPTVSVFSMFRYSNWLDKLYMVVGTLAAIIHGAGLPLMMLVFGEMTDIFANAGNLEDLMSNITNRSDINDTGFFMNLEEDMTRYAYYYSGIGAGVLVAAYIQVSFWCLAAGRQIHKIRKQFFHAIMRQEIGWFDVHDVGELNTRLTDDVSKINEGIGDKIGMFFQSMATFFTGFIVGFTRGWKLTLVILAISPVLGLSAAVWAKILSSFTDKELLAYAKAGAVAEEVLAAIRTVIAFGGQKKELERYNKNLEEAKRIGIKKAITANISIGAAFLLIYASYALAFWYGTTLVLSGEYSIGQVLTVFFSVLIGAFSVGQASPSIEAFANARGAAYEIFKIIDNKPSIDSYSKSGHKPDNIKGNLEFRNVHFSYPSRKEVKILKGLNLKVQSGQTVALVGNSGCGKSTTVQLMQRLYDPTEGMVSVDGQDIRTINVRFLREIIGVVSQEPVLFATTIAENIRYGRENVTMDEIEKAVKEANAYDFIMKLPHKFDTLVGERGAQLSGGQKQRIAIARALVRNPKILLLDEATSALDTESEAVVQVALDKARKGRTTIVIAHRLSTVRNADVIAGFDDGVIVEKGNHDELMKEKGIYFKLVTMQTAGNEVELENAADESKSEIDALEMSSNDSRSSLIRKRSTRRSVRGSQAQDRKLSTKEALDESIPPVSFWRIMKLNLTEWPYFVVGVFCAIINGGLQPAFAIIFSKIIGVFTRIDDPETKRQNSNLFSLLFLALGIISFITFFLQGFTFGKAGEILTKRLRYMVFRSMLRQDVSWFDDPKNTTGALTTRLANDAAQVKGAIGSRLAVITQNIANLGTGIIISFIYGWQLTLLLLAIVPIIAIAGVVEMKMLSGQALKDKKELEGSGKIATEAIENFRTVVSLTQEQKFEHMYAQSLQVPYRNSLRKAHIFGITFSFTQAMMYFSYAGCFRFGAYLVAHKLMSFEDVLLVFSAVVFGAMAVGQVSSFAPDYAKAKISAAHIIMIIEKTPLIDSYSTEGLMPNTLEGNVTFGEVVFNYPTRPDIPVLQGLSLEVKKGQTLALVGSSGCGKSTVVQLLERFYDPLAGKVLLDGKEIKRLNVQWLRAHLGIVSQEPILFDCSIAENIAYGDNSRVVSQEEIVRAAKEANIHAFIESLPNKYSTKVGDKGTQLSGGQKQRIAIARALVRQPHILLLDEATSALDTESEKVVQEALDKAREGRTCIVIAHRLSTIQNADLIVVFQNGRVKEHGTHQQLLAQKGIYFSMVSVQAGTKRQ

HEK293 [30] = experiment: Reversal of resistance to paclitaxel-induced cytotoxicity in human HEK293/pcDNA3.1 cells assessed as reversal fold at 1 uM preincubated for 4 hrs followed by paclitaxel addition and measured after 72 hrs by MTT assay; format: functional; settings: time 76 hrs

Cc1cc(Nc2ccc(C(=O)/C=C/c3ccc4ccccc4c3)cc2)n2nc(SCc3nc4ccccc4[nH]3)nc2n1
IC50 (KB-C2 [1]): 3.67 nM
Activity (SW-620 [2]): 59%
MRT last at 24 h [3]: 5.76 min
AUC(0-t) at 24 h [4]: 9440 ng·h/mL
Vd [5]: 0.114 L/kg
Activity (SW-620 [6]): Active
IC50 (KB-C2 [7]): 15.9 nM
fold change (FC) (HEK293 [8]): 9.92
IC50 (HEK293 [9]): 1.69 nM
fold change (FC) (HEK293 [10]): 24.84
fold change (FC) (SW-620 [11]): 846
Activity (Mus musculus [12]): Non-Toxic
fold change (FC) (KB 3-1 [13]): 1.29
Activity (SW-620 [14]): Active
fold change (FC) (HEK293 [15]): 1.47
IC50 (KB 3-1 [16]): 4.09 nM
clearance [17]: 17.7 mL/min/kg
Activity (SW-620 [18]): inactive
Activity (SW-620 [19]): Active
fold change (FC) (KB-C2 [20]): 118.34
fold change (FC) (SW-620 [21]): 1.1
Activity (Mus musculus [22]): Non-Toxic
fold change (FC) (KB-C2 [23]): 513.99
IC50 (SW-620 [24]): 7.19 nM
Activity (SW-620 [25]): Active
fold change (FC) (SW-620 [26]): 1.06
IC50 (SW-620 [27]): 28.1 nM
fold change (FC) (KB 3-1 [28]): 1.11
Activity [29]: Active
fold change (FC) (HEK293 [30]): 1.14
